Molecular target: BACE (Homo sapiens, UniProt P56817)
Assay: Ki Determination for the Inhibition of BACE (FS-1 peptide fluorescence cleavage assay)
Format: biochemical
Conditions: apparent Ki; 50 nM BACE, 10 μM FS-1 substrate, 0.1M sodium acetate pH 4.5
Method in brief: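 Human BACE (50 nM) was preincubated 15 min at room temperature with compound (2% DMSO) in 0.1 M sodium acetate pH 4.5, then 10 μM FS-1 peptide was added. Cleavage was followed by fluorescence (ex 355/em 495 nm), and apparent Ki came from fitting to the integrated competitive tight-binding inhibition equation.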

Sequence of BACE (P56817 46-501): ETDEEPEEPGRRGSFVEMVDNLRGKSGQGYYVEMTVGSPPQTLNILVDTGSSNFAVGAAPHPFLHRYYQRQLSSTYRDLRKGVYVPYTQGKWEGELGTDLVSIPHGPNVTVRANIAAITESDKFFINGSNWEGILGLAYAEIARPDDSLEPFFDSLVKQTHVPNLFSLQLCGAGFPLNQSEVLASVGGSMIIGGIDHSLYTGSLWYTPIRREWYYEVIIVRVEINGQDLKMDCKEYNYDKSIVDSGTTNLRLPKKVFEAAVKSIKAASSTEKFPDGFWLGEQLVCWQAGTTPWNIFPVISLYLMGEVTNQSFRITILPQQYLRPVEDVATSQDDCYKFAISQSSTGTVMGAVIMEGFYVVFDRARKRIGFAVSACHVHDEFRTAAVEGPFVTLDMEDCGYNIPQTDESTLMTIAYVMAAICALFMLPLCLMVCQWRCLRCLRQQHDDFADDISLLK

| Structure (SMILES) | Ki |
| --- | --- |
| O=C(NC1CCCc2ccccc21)C1CNCCC1c1ccc(COc2ccccc2C(F)(F)F)cc1 (centres unmarked) [Compound 209, 4-[4-(2-Trifluoromethyl-phenoxymethyl)-phenyl]-piperidine-3-carboxylic acid (1,2,3,4-tetrahydro-naphthalen-1-yl)-amide] | 3 to 30 µM |
| Oc1ccc(-c2cc(COc3ccccc3C(F)(F)F)c(C3=CCNCC3)cc2COc2ccccc2C(F)(F)F)cc1 [Compound 352, 4′-(1,2,3,6-Tetrahydro-pyridin-4-yl)-2′,5′-bis-(2-trifluoromethyl-phenoxymethyl)-biphenyl-4-ol] | < 3 µM |
| O=C(O)c1cc2ccccc2cc1C(=O)NCC1CNCCC1c1ccc(COc2ccccc2C(F)(F)F)cc1 (centres unmarked) [Compound 213, 3-({4-[4-(2-Trifluoromethyl-phenoxymethyl)-phenyl]-piperidin-3-ylmethyl}-carbamoyl)-naphthalene-2-carboxylic acid] | 3 to 30 µM |
| O=C(Nc1cc(C(F)(F)F)c(-c2ccc(C(F)(F)F)cc2)cc1N1CCNCC1)c1cccc2ccccc12 [Compound 170, Naphthalene-1-carboxylic acid (5-piperazin-1-yl-2,4′-bis-trifluoromethyl-biphenyl-4-yl)-amide] | < 3 µM |
| FC(F)(F)c1cccc(-c2cc(COc3ccccc3C(F)(F)F)c(C3=CCNCC3)cc2COc2ccccc2C(F)(F)F)c1 [Compound 337, 4-[3′-Trifluoromethyl-2,5-bis-(2-trifluoromethyl-phenoxymethyl)-biphenyl-4-yl]-1,2,3,6-tetrahydro-pyridine] | 3 to 30 µM |
| O=C(Nc1cc(F)c(Br)cc1N1CCNCC1)c1cccc2ccccc12 [Compound 157, Naphthalene-1-carboxylic acid (4-bromo-5-fluoro-2-piperazin-1-yl-phenyl)-amide] | > 30 µM |
| O=C(NCC1CNCCC1c1ccc(COc2ccccc2C(F)(F)F)cc1)Nc1ccc2ccccc2c1 (centres unmarked) [Compound 232, 1-Naphthalen-2-yl-3-{4-[4-(2-trifluoromethyl-phenoxymethyl)-phenyl]-piperidin-3-ylmethyl}-urea] | < 3 µM |
| O=C(NCC1CNCCC1c1ccc(COc2ccccc2C(F)(F)F)cc1)Oc1cccc2ccccc12 (centres unmarked) [Compound 229, {4-[4-(2-Trifluoromethyl-phenoxymethyl)-phenyl]-piperidin-3-ylmethyl}-carbamic acid naphthalen-1-yl ester] | < 3 µM |
| COC(=O)C1CN(c2ccc(-c3ccc(C(F)(F)F)cc3)cc2NCc2ccc3ccccc3c2)CCN1 (centres unmarked) [Compound 192, 4-{3-[(Naphthalen-2-ylmethyl)-amino]-4′-trifluoromethyl-biphenyl-4-yl}-piperazine-2-carboxylic acid methyl ester] | < 3 µM |
| FC(F)(F)c1ccc(-c2ccc(N3CCNCC3)c(NCc3ccc4ccccc4c3)c2)cc1 [Compound 166, Naphthalen-2-ylmethyl-(4-piperazin-1-yl-4′-trifluoromethyl-biphenyl-3-yl)-amine] | < 3 µM |
| FC(F)(F)c1ccccc1OCc1cccc(COc2ccccc2C(F)(F)F)c1C1=CCNCC1 [Compound 304, 4-[2,6-Bis-(2-trifluoromethyl-phenoxymethyl)-phenyl]-1,2,3,6-tetrahydro-pyridine] | < 3 µM |
| O=C(Nc1cccc2ccccc12)c1ccc(COc2ccccc2C(F)(F)F)cc1C1=CCNCC1 [Compound 322, N-Naphthalen-1-yl-2-(1,2,3,6-tetrahydro-pyridin-4-yl)-4-(2-trifluoromethyl-phenoxymethyl)-benzamide] | 3 to 30 µM |
| O=C(Nc1ccc2ccccc2c1)C1CNCCN1C(=O)c1cccc(COc2ccccc2C(F)(F)F)c1 (centres unmarked) [Compound 206, 1-[3-(2-Trifluoromethyl-phenoxymethyl)-benzoyl]-piperazine-2-carboxylic acid naphthalen-2-ylamide] | > 30 µM |
| COC(=O)c1ccc(OCc2ccc(COc3ccccc3C(F)(F)F)cc2C2=CCNCC2)cc1 [Compound 329, 4-[2-(1,2,3,6-Tetrahydro-pyridin-4-yl)-4-(2-trifluoromethyl-phenoxymethyl)-benzyloxy]-benzoic acid methyl ester] | 3 to 30 µM |
| O=S(=O)(Nc1cc(C(F)(F)F)ccc1N1CCNCC1)c1ccc(-c2ccc(C(F)(F)F)cc2)cc1 [Compound 171, 4′-Trifluoromethyl-biphenyl-4-sulfonic acid (2-piperazin-1-yl-5-trifluoromethyl-phenyl)-amide] | < 3 µM |
| O=C(Nc1cc(-c2ccc(S(=O)(=O)NCc3ccccc3)c(F)c2)ccc1N1CCNCC1)c1cccc2ccccc12 [Compound 163, Naphthalene-1-carboxylic acid (4′-benzylsulfamoyl-3′-fluoro-4-piperazin-1-yl-biphenyl-3-yl)-amide] | < 3 µM |
| O=C(Nc1cc(Oc2ccccc2)ccc1N1CCNCC1)c1cccc2ccccc12 [Compound 132, Naphthalene-1-carboxylic acid (5-phenoxy-2-piperazin-1-yl-phenyl)-amide] | 3 to 30 µM |
| FC(F)(F)c1ccccc1OCc1cc(-c2ccco2)c(COc2ccccc2C(F)(F)F)cc1C1=CCNCC1 [Compound 346, 4-[4-Furan-2-yl-2,5-bis-(2-trifluoromethyl-phenoxymethyl)-phenyl]-1,2,3,6-tetrahydro-pyridine] | < 3 µM |
| O=S(=O)(Nc1cc(C(F)(F)F)ccc1N1CCNCC1)c1ccc(-c2ccccc2C(F)(F)F)cc1 [Compound 172, 2′-Trifluoromethyl-biphenyl-4-sulfonic acid (2-piperazin-1-yl-5-trifluoromethyl-phenyl)-amide] | < 3 µM |
| O=[N+]([O-])c1ccccc1-c1cc(COc2ccccc2C(F)(F)F)c(C2=CCNCC2)cc1COc1ccccc1C(F)(F)F [Compound 344, 4-[2′-Nitro-2,5-bis-(2-trifluoromethyl-phenoxymethyl)-biphenyl-4-yl]-1,2,3,6-tetrahydro-pyridine] | < 3 µM |
| COc1cccc(-c2ccc(N3CCNCC3)c(NC(=O)c3cccc4ccccc34)c2)c1 [Compound 119, Naphthalene-1-carboxylic acid (3′-methoxy-4-piperazin-1-yl-biphenyl-3-yl)-amide] | > 30 µM |

More lines, now with the values ahead:

| Ki | Structure (SMILES) |
| --- | --- |
| < 3 µM | Cc1ccccc1-c1ccc(C2=CCNCC2)c(COc2ccccc2C(F)(F)F)c1 [Compound 374, 4-[2′-Methyl-3-(2-trifluoromethyl-phenoxymethyl)-biphenyl-4-yl]-1,2,3,6-tetrahydro-pyridine] |
| < 3 µM | OCc1ccccc1-c1cc(COc2ccccc2C(F)(F)F)c(C2=CCNCC2)cc1COc1ccccc1C(F)(F)F [Compound 367, [4′-(1,2,3,6-Tetrahydro-pyridin-4-yl)-2′,5′-bis-(2-trifluoromethyl-phenoxymethyl)-biphenyl-2-yl]-methanol] |
| < 3 µM | OCc1ccc(-c2cc(COc3ccccc3C(F)(F)F)c(C3=CCNCC3)cc2COc2ccccc2C(F)(F)F)cc1 [Compound 366, [4′-(1,2,3,6-Tetrahydro-pyridin-4-yl)-2′,5′-bis-(2-trifluoromethyl-phenoxymethyl)-biphenyl-4-yl]-methanol] |
| < 3 µM | O=C(OCc1ccccc1-c1ccc(C2=CCNCC2)c(COc2ccccc2C(F)(F)F)c1)c1cccnc1Cl [Compound 384, 2-Chloro-nicotinic acid 4′-(1,2,3,6-tetrahydro-pyridin-4-yl)-3′-(2-trifluoromethyl-phenoxymethyl)-biphenyl-2-ylmethyl ester] |
| < 3 µM | FC(F)Oc1ccccc1COc1ccc2c(c1)c1c(n2Cc2ccc3ccccc3c2)CNCC1 [Compound 516, 6-(2-Difluoromethoxy-benzyloxy)-9-naphthalen-2-ylmethyl-2,3,4,9-tetrahydro-1H-b-carboline] |
| < 3 µM | O=C(OCc1ccccc1-c1ccc(C2=CCNCC2)c(COc2ccccc2C(F)(F)F)c1)c1ccccc1C(F)(F)F [Compound 380, 2-Trifluoromethyl-benzoic acid 4′-(1,2,3,6-tetrahydro-pyridin-4-yl)-3′-(2-trifluoromethyl-phenoxymethyl)-biphenyl-2-ylmethyl ester] |
| > 30 µM | COc1ccc2c(c1)c1c(n2C(=O)c2ccc3ccccc3c2)CNCC1 [Compound 502, (6-Methoxy-1,2,3,4-tetrahydro-b-carbolin-9-yl)-naphthalen-2-yl-methanone] |
| < 3 µM | O=C(OCc1cc(C2=CCNCC2)c(COc2ccccc2C(F)(F)F)cc1-c1ccoc1)c1cccnc1 [Compound 385, Nicotinic acid 2-furan-3-yl-5-(1,2,3,6-tetrahydro-pyridin-4-yl)-4-(2-trifluoromethyl-phenoxymethyl)-benzyl ester] |
| 3 to 30 µM | CC(NC(=O)C1CNCCC1c1ccc(-c2ccccc2)cc1)c1cccc2ccccc12 (centres unmarked) [Compound 405] |
| < 3 µM | COC(=O)c1ccc(-c2cc(COc3ccccc3C(F)(F)F)c(C3=CCNCC3)cc2COc2ccccc2C(F)(F)F)cc1 [Compound 369, 4′-(1,2,3,6-Tetrahydro-pyridin-4-yl)-2′,5′-bis-(2-trifluoromethyl-phenoxymethyl)-biphenyl-4-carboxylic acid methyl ester] |
| < 3 µM | O=[N+]([O-])c1cccc(-c2cc(COc3ccccc3C(F)(F)F)c(C3=CCNCC3)cc2COc2ccccc2C(F)(F)F)c1 [Compound 353, 4-[3′-Nitro-2,5-bis-(2-trifluoromethyl-phenoxymethyl)-biphenyl-4-yl]-1,2,3,6-tetrahydro-pyridine] |
| < 3 µM | c1ccc2cc(COc3ccc4c(c3)c3c(n4Cc4ccc5ccccc5c4)CNCC3)ccc2c1 [Compound 519, 6-(Naphthalen-2-ylmethoxy)-9-naphthalen-2-ylmethyl-2,3,4,9-tetrahydro-1H-b-carboline] |
| 3 to 30 µM | FC(F)(F)c1ccccc1OCc1cc(C2=CCNCC2)ccc1C1=CCNCC1 [Compound 371, 4-[4-(1,2,3,6-Tetrahydro-pyridin-4-yl)-2-(2-trifluoromethyl-phenoxymethyl)-phenyl]-1,2,5,6-tetrahydro-pyridine] |
| < 3 µM | Cc1c(COc2ccc3c(c2)c2c(n3C(=O)c3cccc4ccccc34)CNCC2)cccc1C(F)(F)F [Compound 523, [6-(2-Methyl-3-trifluoromethyl-benzyloxy)-1,2,3,4-tetrahydro-b-carbolin-9-yl]-naphthalen-1-yl-methanone] |

Reference: US20030095958A1, “Inhibitors of bace” (priority 2001, published 2003)
